Experimental data taken from article PMC5882690, “Mechanical characteristics of beta sheet-forming peptide hydrogels are dependent on peptide sequence, concentration and buffer composition” (Royal Society Open Science, 2018).
Where a SMILES comes first, the peptide text is derived from it. [ ]: non-standard residue; d: D form. Orn = NCCC[C@H](N)C(=O)O

Columns and labels:
[1] = cited from earlier work
Description: The topographical structure of SAP hydrogels is important for the three-dimensional arrangement of cells within scaffolds. Zhang et al. state that the fibres of SAP hydrogels resemble the nanometre scale of natural polymer networks and thus allow three-dimensional cell growth. […] (figure 1). […] Moreover, they observed the formation fibre entanglements with diameters of 30 nm. The phenomenon of fibril clustering was also reported by Zhang et al. for the peptides KFE8 and KLD12, characterized by a typical single fibre width of 7 nm and thicker diameters for the bundles of fibres.

[2] = target: T1, human neutrophil elastase (Homo sapiens, UniProt P08246); assay: SAP hydrogel degradation by human neutrophil elastase; type: in vitro ADME; settings: human neutrophil elastase 100 µg ml^-1 (86 units ml^-1) in PBS, 37°C, 5% CO2, 20 mg ml^-1 P11-4, 15 mg ml^-1 others, Qubit Protein Assay, mean ± SD, n = 3
T1 construct: purchased Innovative Research, USA
T1 sequence (P08246 30-267): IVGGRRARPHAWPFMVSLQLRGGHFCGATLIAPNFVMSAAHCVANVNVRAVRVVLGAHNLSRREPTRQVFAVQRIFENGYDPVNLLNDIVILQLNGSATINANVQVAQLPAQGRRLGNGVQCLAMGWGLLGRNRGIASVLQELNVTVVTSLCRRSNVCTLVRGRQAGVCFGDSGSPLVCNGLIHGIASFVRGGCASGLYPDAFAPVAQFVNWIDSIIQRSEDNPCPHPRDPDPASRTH
Experimental: SAP hydrogel dissolution and degradation properties of the peptides in the presence and absence of neutrophilic elastase and microorganisms were measured by determining the peptide content of the supernatant. Therefore, SAPs were assembled in PBS at concentrations of 20 mg ml^−1 for P11-4 and 15 mg ml^−1 for P11-8, P11-13/14 and P11-28/29. The assay was performed in a 96-well plate with gel volumes of 100 µl well^−1. 86 units ml^−1 elastase (Innovative Research, USA) (100 µg ml^−1) were added to the assembled peptides in PBS solution. After 24 h incubation at 37°C and 5% CO2, 10 µl of the supernatant was sterilely removed after 24 and 168 h and measured indirectly by monomeric peptide concentration in the supernatant using the Qubit® Protein Assay (Q33211; Thermo Fisher; fluorescence at 485/590 nm) and transferred back for the remainder of the experiment allowing peptide hydrogel degradation measurement without disturbing the hydrogel to buffer fluid balance. The measurements are based on the fact that degraded peptides cause disassembly of the fibrils, as assembly rules are no longer given, resulting in an increase in monomeric SAP in solution. SAP concentrations were calculated based on respective peptide standard curves. For data analysis, SAP concentrations measured in the supernatant were calculated as a percentage of the specific starting concentrations of each peptide system. Statistical analysis was done using a two-way ANOVA followed by Sidak's multiple comparison test.

## KLD12 [reference compound]
[1]; literature
  typical single fibre width: 7 nm

## CC(=O)N[C@@H](CCC(N)=O)C(=O)N[C@@H](CCC(N)=O)C(=O)N[C@@H](CCCNC(=N)N)C(=O)N[C@@H](Cc1ccccc1)C(=O)N[C@@H](CCCN)C(=O)N[C@@H](Cc1c[nH]c2ccccc12)C(=O)N[C@@H](CCCN)C(=O)N[C@@H](Cc1ccccc1)C(=O)N[C@@H](CCC(=O)O)C(=O)N[C@@H](CCC(N)=O)C(=O)N[C@@H](CCC(N)=O)C(N)=O [P11-8, CH3CO-QQRFOWOFEQQ-NH2] (Ac-QQRF[Orn]W[Orn]FEQQ-NH2)
[2]; 1 d
  relative peptide amount in supernatant (% of peptide starting concentration): 10.4± 3.9%
[2]; 7 d
  relative peptide amount in supernatant (% of peptide starting concentration): 10.4± 1.3%

## RADA16 [reference compound]
[1]; literature value
  fibre diameter: approximately 10 nm
